These results are taken from US20250064836A1 (priority 2023, published 2025).

Entries after “also recorded” stand apart in the source; their conditions may differ. Like-named read-outs stand apart in the source and are kept apart here. No end group written: not given here.

In one experiment the test system is mice. Type of experiment: in vivo, mouse.
The next experiment relates to cecal tissue explants. The settings on record: mouse, in vivo.
The subject of experiment [1] is C. difficile 630 Δerm. In words: C. difficile growth in vitro (OD600). The settings on record: 20 μM, 24 h.
Experiment [2] deals with C. difficile M7404 (A-/B+). As to the kind of experiment: CDI mouse model, hypervirulent strain M7404 (TcdA-/TcdB2). The settings on record: for fatality: CDI with M7404 (A-/B+), mice; for histopathological scores of colitis: surviving mice, CDI with M7404.
The next experiment concerns mouse footpads. The settings on record: for oedema induced by TcdB2: footpad injection of TcdB2, antagonist pre-treatment.
Experiment [3] has as its system C. difficile 630 Δerm. In words: Antibiotic-treatment-induced CDI mouse model, C. difficile 630 Δerm. The settings on record: for histopathological scores: CDI mouse model, 630 Δerm, FIG. 4D; for histopathological scores / pathogen burden (C. difficile CFUs in faeces): WT mice; for pathogen burden (C. difficile CFUs in faeces): day 2 after infection.
A further experiment relates to human brain pericytes. As to the kind of experiment: IL-8 secretion from cultured pericytes (ELISA). Format: cell-based. Here is the method:
Primary human cultured brain vascular pericytes (ScienCell, #1200) were routinely cultured in special medium with supplement, FBS and penicillin streptomycin provided by the cell's vendor (ScienCell, #1201). Cells were subcultured when confluent and used up to passage 10. For secretion assays these were performed on early passage cells (passages 3-8). Cytokine secretion in cell culture medium was determined using ELISA based assays against IL-8 (Biolegend, 431504). The effect of CGRP on cultured pericytes was determined by incubating pericytes for 1 h with human CGRPB (Cayman, 24725).

Where [4] appears, read: cecum injection of TcdB (6 μg), mice pretreated with antagonist 30 min to 1 h before, FIG. 4C.

Description for mouse footpads: The footpad toxin injection assay was performed as previously described. Briefly, mice were restrained in an incontinence pad and the footpad was held and subsequently injected using a 29.5G syringe into the plantar surface. […] Paw diameter changes were assessed by calculating a ratio relative to the un-injected foot. For each test toxin, 500 ng were administered in a volume of 20 μl of normal saline. Pharmacological assays were performed in female CDI mice, with pre-treatment with drugs 30 min to 1 h prior to toxin injection. For experiments involving transgenic mice, experiments were performed in male and female mice (age matched, 8-15 weeks).

For the molecule `C=C(C)[C@]12C[C@@H](C)[C@@]34O[C@](Cc5ccccc5)(O[C@@H]1[C@@H]3C=C(COC(=O)Cc1ccc(O)c(OC)c1)C[C@]1(O)C(=O)C(C)=C[C@@H]41)O2` [RTX, resiniferatoxin], the “histopathology upon TcdB administration” value in the experiment on mice (mouse, in vivo) was “less severe histopathology”. Moreover, in the experiment with cecal tissue explants, the CGRP secretion entry is “reduced” and the SP levels entry was “reduced SP levels”.

`C[C@@H](O[C@H]1OCCN(Cc2n[nH]c(=O)[nH]2)[C@H]1c1ccc(F)cc1)c1cc(C(F)(F)F)cc(C(F)(F)F)c1` [aprepitant]: the histopathological scores result in the experiment with mice (setting [4]) and in the experiment with C. difficile 630 Δerm [3] was “reduced histopathological scores” throughout. In addition, in the experiment with C. difficile 630 Δerm [1], the “C. difficile growth rate / fitness (OD600)” value is recorded as “not affected; also recorded: Neither drug influenced C. difficile growth rate”. The fatality result in experiment [2] is “markedly reduced”. Besides, the “histopathological scores of colitis” value in experiment [2] is reported as “markedly reduced”. In the experiment with mouse footpads (footpad injection of TcdA, antagonist pre-treatment), the “oedema induced by TcdA” value is “prevented; also recorded: blocked”. Also, the “oedema induced by TcdB2” value is reported as “prevented” in the experiment with mouse footpads and “can prevent oedema induced by TcdB2” in the experiment with mouse footpads (listed as Aprepitant). Further, the “oedema induced by TcdB” value with mouse footpads (footpad injection of TcdB, antagonist pre-treatment) is recorded as “prevented oedema induced by TcdB”. Also, the “oedema induced by GTD-ciDT” value with mouse footpads (footpad, Tac1-Cre mice infected with AAV-DTR) was “blocked”. The “effect on C. difficile colonization and histopathological scores” value in the experiment with C. difficile 630 Δerm [3] (Tac1 KO mice) is listed as “nor had an effect”. In the experiment on C. difficile 630 Δerm [3], the “pathogen burden (C. difficile CFUs in faeces)” value is given as “reduced pathogen burden”.

In the case of `NCCCC[C@H](NC(=O)[C@@H](Cc1cc(Br)c(O)c(Br)c1)NC(=O)N1CCC(N2Cc3ccccc3NC2=O)CC1)C(=O)N1CCN(c2ccncc2)CC1` [olcegepant], the histopathological scores entry with mice (setting [4]) was “reduced histopathological scores”. The “C. difficile growth rate / fitness (OD600)” value with C. difficile 630 Δerm [1] was “not affected; also recorded: Neither drug influenced C. difficile growth rate”. Also, in experiment [2], the fatality result is “markedly reduced” and the “histopathological scores of colitis” value was “markedly reduced”. The “oedema induced by TcdB2” value with mouse footpads is recorded as “can prevent oedema induced by TcdB2; also recorded: prevented”. In the experiment on C. difficile 630 Δerm [3], the histopathological scores result is “reduced histopathological scores” and the “pathogen burden (C. difficile CFUs in faeces)” value is “reduced pathogen burden”. Besides, in the experiment on C. difficile 630 Δerm [3] (Calcb KO mice), the “effect on C. difficile colonization and histopathological scores” value is “nor had an effect”.

Consider “CGRP: human CGRPβ (Cayman, 24725) added to cultured pericytes (ACNTATCVTHRLAGLLSRSGGMVKSNFVPTNVGSKAF; ends and bridges not checked; cysteine pairing not given here; UniProt P10092 82-118, looked up)”, for which the IL-8 secretion entry in the experiment on human brain pericytes is on record as “induced secretion of IL-8”.

With “substance P (RPKPQQFFGLM; not fully specified (C-terminus); ends and bridges not checked; UniProt P20366 58-68, looked up) [neuropeptide composed of a chain of 11 amino acids, tachykinin family]”, in the experiment on mice (mouse, in vivo), the histopathological scores entry is “restored histopathological scores” and the “susceptibility to TcdB (histopathology)” value is “restored the susceptibility”. For the same molecule, the CGRP secretion result with cecal tissue explants is listed as “restored”.

B1: fremanezumab (antibody, chains of the INN, looked up, V domains shown)
VH: EVQLVESGGGLVQPGGSLRLSCAASGFTFSNYWISWVRQAPGKGLEWVAEIRSESDASATHYAEAVKGRFTISRDNAKNSLYLQMNSLRAEDTAVYYCLAYFDYGLAIQNYWGQGTLVTVSS
VL: EIVLTQSPATLSLSPGERATLSCKASKRVTTYVSWYQQKPGQAPRLLIYGASNRYLGIPARFSGSGSGTDFTLTISSLEPEDFAVYYCSQSYNYPYTFGQGTKLEIK
Consider B1, for which the histopathological scores entry is recorded as “reduced histopathological scores” in the experiment on mice (mouse, in vivo) and “reduced histopathological scores” in the experiment with C. difficile 630 Δerm [3].
